Measurements: ChEMBL document CHEMBL1129297 (J Med Chem, 1996)

Legend:
[1] = target: T1, 5-hydroxytryptamine receptor 1A (Homo sapiens, UniProt P08908)
T1 sequence (P08908 whole entry): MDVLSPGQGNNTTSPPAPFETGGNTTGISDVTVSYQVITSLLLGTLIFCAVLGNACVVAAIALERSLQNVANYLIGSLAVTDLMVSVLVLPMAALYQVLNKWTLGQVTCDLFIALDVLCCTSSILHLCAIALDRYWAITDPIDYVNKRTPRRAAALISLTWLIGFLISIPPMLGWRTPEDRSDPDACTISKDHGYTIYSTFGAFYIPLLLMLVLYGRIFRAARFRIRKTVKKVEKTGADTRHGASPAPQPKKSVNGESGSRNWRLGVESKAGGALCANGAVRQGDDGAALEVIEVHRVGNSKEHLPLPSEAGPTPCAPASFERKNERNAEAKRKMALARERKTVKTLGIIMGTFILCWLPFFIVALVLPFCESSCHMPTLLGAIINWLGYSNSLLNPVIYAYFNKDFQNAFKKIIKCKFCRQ

[2] = target: T2, 5-hydroxytryptamine receptor 1B (Homo sapiens, UniProt P28222); assay: Displacement of [3H]-5-HT from human 5-hydroxytryptamine 1D receptor beta
T2 sequence (P28222 whole entry): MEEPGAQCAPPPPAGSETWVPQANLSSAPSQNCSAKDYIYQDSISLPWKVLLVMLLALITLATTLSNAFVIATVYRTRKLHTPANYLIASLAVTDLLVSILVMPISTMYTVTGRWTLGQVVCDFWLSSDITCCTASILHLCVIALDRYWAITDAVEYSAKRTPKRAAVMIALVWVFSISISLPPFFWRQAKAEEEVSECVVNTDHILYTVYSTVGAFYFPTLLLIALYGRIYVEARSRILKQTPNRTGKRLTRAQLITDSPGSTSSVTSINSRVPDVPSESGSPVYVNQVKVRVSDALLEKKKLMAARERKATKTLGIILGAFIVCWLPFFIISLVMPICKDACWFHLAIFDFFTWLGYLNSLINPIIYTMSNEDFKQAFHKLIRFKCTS

[3] = target: T3, 5-hydroxytryptamine receptor 1D (Homo sapiens, UniProt P28221)
T3 sequence (P28221 whole entry): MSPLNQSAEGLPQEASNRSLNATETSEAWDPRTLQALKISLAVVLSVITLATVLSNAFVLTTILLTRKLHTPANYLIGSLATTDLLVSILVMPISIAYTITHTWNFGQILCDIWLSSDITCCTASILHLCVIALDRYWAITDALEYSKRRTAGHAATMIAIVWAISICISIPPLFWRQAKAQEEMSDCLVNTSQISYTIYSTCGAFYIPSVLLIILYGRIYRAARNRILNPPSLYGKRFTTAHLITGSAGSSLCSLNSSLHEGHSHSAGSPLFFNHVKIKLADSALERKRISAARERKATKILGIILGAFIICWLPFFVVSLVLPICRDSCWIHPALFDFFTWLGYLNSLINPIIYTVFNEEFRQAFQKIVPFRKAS

[4] = target: T2, 5-hydroxytryptamine receptor 1B; assay: Binding affinity towards cloned human 5-hydroxytryptamine 1D receptor was determined using […] as radioligand
[5] = target: T2, 5-hydroxytryptamine receptor 1B
[6] = target: T3, 5-hydroxytryptamine receptor 1D; assay: Binding affinity of compound against 5-HT1Dalpha Binding affinity of compound against 5-HT1D alpha receptors in human
Cavia porcellus = organism: Cavia porcellus; assay: Dissociation constant using guinea pig caudate membrane homogenate.; format: ADME

| Structure (SMILES) | Ki [1] [nM] | Ki [3] [nM] | further results |
| --- | --- | --- | --- |
| CCc1ccc2[nH]cc(CCN)c2c1 | 20 | – | – |
| CC(C)(C)CCCCCCCOc1ccc2[nH]cc(CCN)c2c1 | 63 | – | – |
| COc1ccc2[nH]c3c(c2c1)CC(N)CC3 (configuration not stated) | – | 1190 | Ki [2]: 342 nM |
| CCCCCCCCCOc1ccc2[nH]c3c(c2c1)CCN(C)C3 | – | – | Ki [4]: > 1000 nM |
| CCCCCCOc1ccc2[nH]c3c(c2c1)CC(N)CC3 (configuration not stated) | – | 1100 | Ki [5]: 188 nM |
| CCCOc1ccc2[nH]cc(CCN)c2c1 | 88 | – | – |
| CCCCCCCCCCCOc1ccc2[nH]cc(CCN)c2c1 | 885 | 69 | – |
| NCCc1c[nH]c2ccc(OCCCCC3CCCCC3)cc12 | 800 | 55 | – |
| COc1ccc2[nH]c3c(c2c1)CC(N(C)C)CC3 (configuration not stated) | – | – | Ki [5]: > 1000 nM |
| CCCCCCCCCOc1ccc2[nH]c3c(c2c1)CC(N)CC3 (configuration not stated) | – | – | Ki [5]: 172 nM; Ki [6]: 2350 nM |
| CC(C)(C)CCCCCCOc1ccc2[nH]cc(CCN)c2c1 | 920 | 16 | – |
| CC(C)CCCCCCOc1ccc2[nH]cc(CCN)c2c1 | – | 42 | – |
| CCCCCCCCCCOc1ccc2[nH]cc(CCN)c2c1 | 575 | 42 | – |
| NC(=O)c1ccc2[nH]c3c(c2c1)CC(N)CC3 (configuration not stated) | – | – | Ki [5]: 10 nM; pKD (Cavia porcellus): 8 |
| CCCCCOc1ccc2[nH]cc(CCN)c2c1 | 42 | 1.5 | – |
| CCCCCCCOc1ccc2[nH]cc(CCN)c2c1 | 38 | 4.9 | – |
| CCCCCCCCC(=O)Oc1ccc2[nH]cc(CCN(C)C)c2c1 | 9.3 | – | – |
| CCCCCCCCCCc1ccc2[nH]c3c(c2c1)CC(N)CC3 (configuration not stated) | – | – | Ki [4]: > 1000 nM |
| CCCCCCCCCOc1ccc2[nH]cc(CCN(C)C)c2c1 | 575 | – | – |
| CCC(=O)Oc1ccc2[nH]cc(CCN(C)C)c2c1 | 405 | – | – |
| CCCCCCCCOc1ccc2[nH]cc(CCN)c2c1 | – | 1.6 | – |
| CCCCCCCCCCc1ccc2[nH]cc(CCN)c2c1 | – | 210 | – |
| CCCCCCCCCOc1ccc2[nH]cc(CCNCCCC)c2c1 | 1550 | 223 | – |
| CCc1ccc2[nH]cc(CCN(C)C)c2c1 | 15 | – | – |
| COc1ccc2[nH]cc(CCN)c2c1 [5-METHOXYTRYPTAMINE] | 3.2 | – | – |
| CC(=O)c1ccc2[nH]cc(CCN)c2c1 [ACETRYPTINE] | 1.3 | – | – |
